Like-named read-outs stand apart in the source and are kept apart here.
Columns and labels:
SERT [1] = target: T1, SERT (Homo sapiens, UniProt P31645); test: Radioligand binding, [3H]imipramine displacement
T1 construct: YFP (yellow-fluorescent protein); expressed in transfected cells
Description: (§1) Binding assays were performed as described previously. Briefly, membrane preparations expressing h5-HT1AR, h5-HT2AR or hSERT (see Supplementary Material) were incubated with radiolabeled selective ligands 0.4 nM [^3H]8-OH-DPAT, 1 nM [^3H]ketanserin or 3 nM [^3H]imipramine, respectively. The drugs were diluted in the corresponding binding buffer and tested at increasing concentrations in duplicate. Binding reactions were performed in tubes containing the drug dilutions; 25 μl of the corresponding radioligand; and the membranes (10 μg and 5 μg/500 μL for 5-HT1AR and 5-HT2AR, respectively, and 15 μg/100 μL for hSERT), all diluted in binding buffer. […] Incubation was performed for 1 h at 27 °C for 5-HT1A/2AR and 22 °C for hSERT, according to the manufacturer’s protocol (Perkin Elmer, Inc., Waltham, MA, USA) and previous studies - saturation and kinetic experiments, respectively. The binding reactions were stopped by rapid filtration through GF/B glass microfiber filters pre-soaked with 0.5% polyethyleneimine and washing with ice-cold wash buffer. The filters were placed into vials and scintillation cocktail was added. The trapped radioactivity was quantified. Specific binding was defined as the difference between total binding (binding buffer alone) and non-specific binding. Experiments were conducted per duplicate for at least three independent experiments.
(§2) The generation and maintenance of HEK293 cells stably expressing the yellow-fluorescent protein (YFP)-tagged version of the human isoform of SERT (hSERT) (Perkin Elmer, Waltham, MA, USA) was carried out as described previously. For uptake inhibition and batch release assays, cells were seeded onto previously poly-D-lysine (PDL)-coated 96-well plates at a density of 0.036 million cells per well [5]. For superfusion release assays, cells were seeded onto a previously coated with PDL 6 channel µ-slide at a density of 0.08 million cells per channel. Prior to patching, cells were grown in DMEM containing 10% FBS, Zeocin (150 µg/mL) and Blasticidin (6 µg/mL) for positive selection of transporter-expressing clones. The cells were seeded at a low density on PDL-coated 35 mm plates 24-48 hr prior to patching. For membrane preparation, HEK293 cells expressing hSERT transporters were harvested from 80–90% confluent dishes as described elsewhere. Protein concentration was determined using the Bio-RadProtein Reagent (Bio Rad Laboratories, Hercules, CA, USA). Membrane preparations were stored at −80°C until use. Generation and maintenance of CHO-K1 cells expressing the human isoform of 5-HT2AR (h5-HT2AR) was carried out as described in the manufacturer’s protocol (Perkin Elmer, Waltham, MA, USA). Routine DAPI-Staining assays tested negative in mycoplasma contamination.

SERT [2] = target: T1, SERT; test: [3H]5-HT uptake inhibition in HEK293 cells expressing hSERT; assay type: cell-based
Description: See the Supplementary Material for cell culture procedures. The medium was removed from each well and replaced with 200 μL/well of Krebs-HEPES-Buffer (KHB). The cells were pre-incubated for 5 min with different concentrations of drug in KHB at 50 μL/well. […] The incubation solution was aspirated and the cells were washed with ice-cold KHB and lysed with 1% sodium dodecyl sulfate (SDS). The lysate was collected into vials and scintillation liquid was added. The radioactivity was quantified using a beta-scintillation counter (Perkin Elmer, Waltham, MA, USA). Non-specific uptake was determined in the presence of 30 μM paroxetine. Data were expressed as percentage of control uptake (absence of tryptamine).
as §2

[3] = system: head twitch response in mice; test: Head twitch response (HTR); assay type: in vivo; settings: for HTR Emax (95% CI): 10-min period; for Effect of antagonist pretreatment on tryptamine-induced HTR: antagonist s.c. 1 mg/kg 10 min before tryptamine i.p. 10 mg/kg
Description: HTR studies were adapted from. Mice (N = 8–10 per group) were injected intraperitoneally (i.p.) with saline or the appropriate tryptamine dose (0.3, 1, 3, 10, or 30 mg/kg) and placed into the observation arena (25 × 25 × 40 cm). A camera mounted above the observation cage recorded the mice for the next 10 min after the injection. Another batch of animals (N = 8–10) received subcutaneous injections of either saline or the respective antagonist (WAY100635 1 mg/kg for 5-HT1AR or ketanserin 1 mg/kg for 5-HT2AR). After a 10-min interval, the animals were i.p. injected with the corresponding tryptamine (10 mg/kg) and placed in the observation arena. Animal behavior was recorded for the next 10 min after the last injection, as mentioned before. Video recordings were examined by two blind observers blinded to the treatments, who assessed the number of head twitches, defined as a rapid rotational jerk of the head which is not contiguous with any grooming behavior [39].
(§3) Data were expressed as means±standard deviation (SD). Competition, release and functional assays, and substrate-induced current curves were plotted and fitted by non-linear regression to obtain the IC50, EC50, and Emax values. For behavioral studies, data were fitted by non-linear regression and pED50 and Emax values (with the corresponding 95% CI) were estimated by means of a software (GraphPad Prism 10) that further extrapolates the data. The Cheng-Prusoff equation was used to calculate Ki (affinity): Ki = […]/(1 + [radioligand-concentration/Kd]). HTR curves were fitted using a Gaussian equation as described. Data from batch release assays were statistically analyzed with a mixed-effects model, employing Šidák’s correction for multiple comparisons. Total release at each concentration and the behavioral experiments with the corresponding antagonists were statistically analyzed using one-way ANOVA, followed by Tukey’s post-hoc test. Molecular volume (van der Waals) was calculated using a grid approximation (spacing 0.75 Å). logP was calculated using Molinspiration Cheminformatics software. For in vivo studies, one-way ANOVA with Dunnet’s post-hoc test was used to compare all conditions to saline in dose-response experiments when data were normally distributed. Otherwise, a non-parametric test (Kruskall-Wallis with Dunn’s post-hoc test) was used. Alpha was set at 0.05. Outliers were excluded following ROUT’s method (Q = 0.1%). All statistical analyses and Pearson correlations were conducted using GraphPad Prism 10 software (GraphPad software, San Diego, CA, USA).

[4] = system: core body temperature in mice; test: Core body temperature measurement; assay type: in vivo
Description: Rectal temperature of mice (N = 8–10 per group) was measured 60 min after i.p. injection of the corresponding compound (see previous section “Head twitch response”). This time point was chosen according to the maximal effect observed in pilot experiments. A thermocouple probe (YS451, Panlab, Barcelona, Spain) connected to a digital thermometer (TMP812RS, Panlab, Barcelona, Spain) was inserted 2 cm into the rectum and steady temperature readout was obtained after 10 s of insertion.
as §3

[5] = system: horizontal locomotor activity in mice; test: Horizontal locomotor activity (HLA); assay type: in vivo; settings: i.p., 30 min; for HLA (hypolocomotion) Emax (95% CI): total traveled distance
Description: The HLA test was carried out according to a previous study. The same animals (N = 8–10 per group) used for the assessment of HTR were recorded for 30 min in an observation arena, under low-light conditions with white noise. Video recordings were processed using a tracking software (Smart 3.0 Panlab, Barcelona, Spain) to measure the total traveled distance.
as §3

SERT [6] = target: T1, SERT; test: Batch release of preloaded [3H]5-HT from HEK293 cells expressing SERT; assay type: cell-based; settings: with or without monensin, pCA as positive control
Description: Batch release is a functional radiometric assay to assess transporter-mediated efflux. […] Subsequently, cells were washed three times with KHB and equilibrated for 10 min in KHB or KHB+monensin (10 µM). […] 10 µM pCA and 0.05 µM paroxetine were used as positive and negative controls, respectively. Liquid scintillation cocktail was added both to the wells containing cells (200 µL) and to the transferred supernatant (100 µL). Total radioactivity determined from/in the remaining lysate of the cells plus the transferred supernatant was set as 100%, and the radioactivity determined in each fraction was expressed as a percentage thereof. Assays were performed per duplicate for five independent experiments.

SERT [7] = target: T1, SERT; test: Whole-cell patch clamp, transporter-mediated currents in HEK293 cells; assay type: cell-based
Description: Whole-cell patch clamping was used to measure the transporter-mediated currents and performed as previously described. […] Cells were continuously superfused by a DAD-12 superfusion system and an 8-tube perfusion manifold (ALA Scientific Instruments in Farmingdale, NY, USA), which allowed to apply a physiological external solution. The pipette solution mimics the internal ionic composition of a cell. […] Passive holding currents were subtracted, and the traces were filtered using a 50-Hz digital Gaussian low-pass filter for analysis purposes. Five independent experiments were performed.

h5-HT1AR = target: T2, h5-HT1AR (Homo sapiens, UniProt P08908); test: Radioligand binding, [3H]8-OH-DPAT displacement; settings: 0.4 nM [3H]8-OH-DPAT, N ≥ 3; read-out: 5-HT1AR Ki ± SD
T2 construct: purchased Perkin Elmer, Inc. (Waltham, MA, USA)
T2 sequence (P08908 1-422): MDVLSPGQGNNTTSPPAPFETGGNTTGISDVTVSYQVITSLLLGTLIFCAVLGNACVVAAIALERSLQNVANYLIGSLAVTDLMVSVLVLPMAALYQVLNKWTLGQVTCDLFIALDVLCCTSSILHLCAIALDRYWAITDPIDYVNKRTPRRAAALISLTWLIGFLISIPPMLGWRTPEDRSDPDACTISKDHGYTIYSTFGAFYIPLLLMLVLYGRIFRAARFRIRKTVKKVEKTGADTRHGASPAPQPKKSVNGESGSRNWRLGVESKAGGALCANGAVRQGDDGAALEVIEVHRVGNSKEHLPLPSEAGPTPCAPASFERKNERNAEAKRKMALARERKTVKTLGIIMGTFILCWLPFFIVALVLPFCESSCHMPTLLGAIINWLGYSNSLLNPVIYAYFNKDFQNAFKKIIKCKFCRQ
Description: as §1

h5-HT2AR = target: T3, h5-HT2AR (Homo sapiens, UniProt P28223); assay type: binding; settings: 1 nM [3H]ketanserin, N ≥ 3; read-out: 5-HT2AR Ki ± SD
T3 construct: purchased Perkin Elmer, Inc. (Waltham, MA, USA)
Description: as §1

[8] = 3 nM [3H]imipramine, N ≥ 3, read-out: SERT Ki ± SD
[9] = read-out: 5-HT uptake inhibition IC50 ± SD, HEK293 hSERT, N ≥ 3
[10] = mice, i.p., 10 min after injection
[11] = mice, i.p., 60 min after injection

T1 sequence (P31645 whole entry): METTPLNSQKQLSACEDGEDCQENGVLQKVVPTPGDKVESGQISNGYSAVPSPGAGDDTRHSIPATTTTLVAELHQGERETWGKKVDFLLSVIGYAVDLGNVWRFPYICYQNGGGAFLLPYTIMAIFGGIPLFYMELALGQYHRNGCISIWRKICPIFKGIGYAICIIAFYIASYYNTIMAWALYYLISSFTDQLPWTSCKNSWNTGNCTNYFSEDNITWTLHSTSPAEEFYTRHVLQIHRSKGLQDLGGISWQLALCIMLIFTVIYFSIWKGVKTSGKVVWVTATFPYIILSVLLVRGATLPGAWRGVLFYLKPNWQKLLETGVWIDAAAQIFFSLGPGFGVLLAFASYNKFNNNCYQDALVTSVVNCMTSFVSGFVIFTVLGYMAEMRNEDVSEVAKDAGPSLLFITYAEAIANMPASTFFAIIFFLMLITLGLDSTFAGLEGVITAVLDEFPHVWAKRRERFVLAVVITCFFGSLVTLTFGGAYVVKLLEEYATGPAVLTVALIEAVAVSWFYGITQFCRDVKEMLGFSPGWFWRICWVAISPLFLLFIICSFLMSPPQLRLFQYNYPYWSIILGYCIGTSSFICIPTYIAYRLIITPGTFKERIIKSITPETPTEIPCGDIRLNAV
T3 sequence (P28223 whole entry): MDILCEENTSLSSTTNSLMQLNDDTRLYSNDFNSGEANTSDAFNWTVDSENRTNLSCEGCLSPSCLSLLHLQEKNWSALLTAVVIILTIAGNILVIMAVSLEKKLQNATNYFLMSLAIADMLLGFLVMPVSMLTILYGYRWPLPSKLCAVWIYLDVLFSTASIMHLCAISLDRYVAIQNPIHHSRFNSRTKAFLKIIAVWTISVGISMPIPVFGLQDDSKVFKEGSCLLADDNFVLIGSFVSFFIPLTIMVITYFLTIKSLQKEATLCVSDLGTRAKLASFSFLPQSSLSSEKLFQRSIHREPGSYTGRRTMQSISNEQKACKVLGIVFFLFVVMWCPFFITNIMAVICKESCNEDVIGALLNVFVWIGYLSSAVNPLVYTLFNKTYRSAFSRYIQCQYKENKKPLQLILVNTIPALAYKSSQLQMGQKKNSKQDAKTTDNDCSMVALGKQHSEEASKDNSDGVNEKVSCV

COc1ccc2[nH]cc(CCN(C)C)c2c1 [5-MeO-DMT, 5-methoxy-N,N-dimethyltryptamine]
Ki (SERT [1]): 14.5 µM
IC50 (SERT [2]): 50.1 µM
ED50 ([3]; Mus musculus, ip, 10 min, mice, i.p., 10 min after injection): 4.84 mg/kg
HTR Emax (95% CI) ([3]; mice, i.p.): 38.1 (31.7–44.5) HTR events
ED50 ([4]; Mus musculus, ip, 1 h, mice, i.p., 60 min after injection, read-out: Change in body temperature ED50): 4.75 mg/kg
ED50 ([5]; Mus musculus, ip, 0.5 h, read-out: HLA (hypolocomotion) ED50): 0.976 mg/kg
HLA (hypolocomotion) Emax (95% CI) [5]: 41.72 (32.18–51.26) % reduction
5-HT releasing activity (SERT [6]): capable of evoking 5-HT release
EC50 (SERT [7]): 2.6 µM
SERT-mediated inward current Emax (SERT [7]; normalized to current elicited by 5-HT 10 µM): 0.41
SERT substrate type (SERT [7]; whole-cell patch clamp): partial SERT substrates

C=CCN(C)CCc1c[nH]c2ccc(OC)cc12 [5-MeO-MALT]
Ki (h5-HT1AR): 0.00596 ± 0.00047 µM
Ki (h5-HT2AR): 0.0529 ± 0.009 µM
Ki (SERT [1]; [8]): 4.01 ± 0.417 µM
IC50 (SERT [2]; [9]): 44.1 µM
HTR Emax (95% CI) ([3]; mice, i.p.): 27.6 (23.2–32.0) HTR events
HTR ED50 [3, 10]: 0.796 mg/kg
Change in body temperature ED50 [4, 11]: 10.2 mg/kg
HLA (hypolocomotion) ED50 [5]: 7.32 mg/kg
HLA (hypolocomotion) Emax (95% CI) [5]: 85.40 (55.18–115.6) % reduction

COc1ccc2[nH]cc(CCNC(C)C)c2c1 [5-MeO-NIPT]
Ki (h5-HT1AR): 0.0157 ± 0.0023 µM
Ki (h5-HT2AR): 0.123 ± 0.038 µM
Ki (SERT [1]; [8]): 8.59 ± 1.71 µM
IC50 (SERT [2]; [9]): 32.1 µM
HTR Emax (95% CI) ([3]; mice, i.p.): 7.58 (5.46–9.71) HTR events
HTR ED50 [3, 10]: 4.85 mg/kg
Change in body temperature ED50 [4, 11]: 7.35 mg/kg
HLA (hypolocomotion) ED50 [5]: 1.96 mg/kg
HLA (hypolocomotion) Emax (95% CI) [5]: 77.64 (69.78–85.50) % reduction

COc1ccccc1N1CCN(CCN(C(=O)C2CCCCC2)c2ccccn2)CC1 [WAY100635, reference compound]
Effect of antagonist pretreatment on tryptamine-induced HTR [3]: the number of head twitches increased significantly
Effect of antagonist pretreatment on tryptamine-induced decrease in body temperature ([4]; antagonist s.c. 1 mg/kg before tryptamine i.p. 10 mg/kg, 60 min): the decrease in body temperature was lower

O=C(c1ccc(F)cc1)C1CCN(CCn2c(=O)[nH]c3ccccc3c2=O)CC1 [ketanserin, reference compound]
Effect of antagonist pretreatment on tryptamine-induced HTR [3]: prevented HTR response

Reference: publication PMC11412900 (Molecular Psychiatry, 2024)
